From paper PMC12638379, “An innovative approach to development of new pyrazolylquinolin-2-one hybrids as dual EGFR and BRAF^V600E inhibitors” (Molecular Diversity, 2025)
Like-named read-outs stand apart in the source and are kept apart here.

How the values were obtained:
[1] = target: T1, EGFR (Homo sapiens, UniProt P00533); test: EGFR inhibitory assay; assay type: biochemical; conditions: for %inh: EGFR, unit not given
T1 construct: EGFR cytoplasmic domain (EGFR-CD, amino acids 645–1186); His6 (N); made in house; host or cells: Sf-9 insect cells (baculovirus)

[2] = target: BRAF^V600E (Homo sapiens, UniProt P15056, V600E); test: BRAF^V600E inhibitory assay (B-Raf (V600E) Kinase Assay); assay type: biochemical; conditions: read-out: BRAF^V600E inhibition IC50 ± SEM
[3] = MTT cytotoxicity on normal cell line WI-38; conditions: human, WI-38 normal cells, % viability
[4] = test system: breast cancer (T47D) cell line; test: MTT antiproliferative assay, T-47D
Method in brief: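 HOP-92, MOLT-4 and T-47D cells in DMEM/10% FBS/insulin exposed 24 h to serial 10-fold dilutions […]; MTT added 2–4 h, absorbance at 570 nm with 690 nm background subtraction. Percent viable cells gives IC50; GI50 is the average IC50 across the three lines.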

[5] = test system: leukemia (MOLT-4) cell line; test: MTT antiproliferative assay, MOLT-4; assay type: cell-based, human
Experimental: (§1) After 24 h of culture incubation and supernatants discarded.

[6] = test system: NCI 60 cancer cell lines; test: NCI anticancer screening over a panel of 60 cancer cells, single concentration 10 µM; assay type: cell-based, human; conditions: Homo sapiens, read-out: % Growth Inhibition (GI %)
Method in brief: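 Primary single-dose screen at 10 µM over the NCI panel of 60 human tumour cell lines (leukemia, CNS, lung, colon, kidney, ovary, breast, prostate). The standard NCI Developmental Therapeutics Program protocol was used.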

[7] = test system: lung cancer (HOP-92) cell line; test: MTT antiproliferative assay, HOP-92; assay type: cell-based, human
Experimental: […]. […] See Appendix B.
as §1

T1 sequence (P00533 669-1210): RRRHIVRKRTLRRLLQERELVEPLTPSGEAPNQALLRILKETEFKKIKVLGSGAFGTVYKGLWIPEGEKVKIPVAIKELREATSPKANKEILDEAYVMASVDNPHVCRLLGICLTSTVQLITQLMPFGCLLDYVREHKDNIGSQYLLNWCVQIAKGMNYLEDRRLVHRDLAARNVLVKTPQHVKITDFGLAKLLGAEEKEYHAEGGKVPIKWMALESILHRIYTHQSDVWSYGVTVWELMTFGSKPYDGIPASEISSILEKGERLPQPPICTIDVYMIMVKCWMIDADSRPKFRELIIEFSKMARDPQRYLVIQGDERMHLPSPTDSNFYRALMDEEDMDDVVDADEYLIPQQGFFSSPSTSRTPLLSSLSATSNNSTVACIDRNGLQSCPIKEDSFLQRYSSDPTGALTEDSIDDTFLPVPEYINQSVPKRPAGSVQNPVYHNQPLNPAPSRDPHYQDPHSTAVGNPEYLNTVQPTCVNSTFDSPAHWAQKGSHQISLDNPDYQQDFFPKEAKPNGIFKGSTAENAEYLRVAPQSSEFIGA
Sequence of BRAF^V600E (P15056 whole entry V600E): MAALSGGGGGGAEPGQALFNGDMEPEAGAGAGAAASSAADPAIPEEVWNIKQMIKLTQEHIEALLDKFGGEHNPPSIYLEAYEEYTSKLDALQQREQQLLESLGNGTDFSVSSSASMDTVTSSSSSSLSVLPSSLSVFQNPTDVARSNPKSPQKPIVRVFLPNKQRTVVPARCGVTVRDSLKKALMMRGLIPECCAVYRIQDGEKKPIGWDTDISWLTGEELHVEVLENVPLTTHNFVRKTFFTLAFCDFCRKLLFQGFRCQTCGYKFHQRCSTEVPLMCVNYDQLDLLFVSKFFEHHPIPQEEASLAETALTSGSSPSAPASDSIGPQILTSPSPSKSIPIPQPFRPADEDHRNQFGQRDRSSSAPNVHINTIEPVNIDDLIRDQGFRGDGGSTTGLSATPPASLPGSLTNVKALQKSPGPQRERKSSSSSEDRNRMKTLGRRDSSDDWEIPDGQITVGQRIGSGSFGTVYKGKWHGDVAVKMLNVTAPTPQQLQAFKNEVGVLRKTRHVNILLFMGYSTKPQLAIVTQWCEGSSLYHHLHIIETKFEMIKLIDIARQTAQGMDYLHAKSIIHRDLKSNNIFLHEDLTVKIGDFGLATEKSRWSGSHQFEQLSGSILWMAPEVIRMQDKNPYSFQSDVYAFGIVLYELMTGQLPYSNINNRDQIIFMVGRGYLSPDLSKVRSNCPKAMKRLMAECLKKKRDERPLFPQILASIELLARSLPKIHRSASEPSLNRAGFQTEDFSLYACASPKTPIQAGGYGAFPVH

With `C/C(=N\Nc1ccc(S(N)(=O)=O)cc1)c1cnn(-c2cc(=O)[nH]c3ccc(Cl)cc23)c1C` [Compound 4d, (E)-4-(2-(1-(1-(6-chloro-2-oxo-1,2-dihydroquinolin-4-yl)-5-methyl-1H-pyrazol-4-yl)ethylidene)hydrazineyl)benzenesulfonamide] the “%inh” value ([1]; conc 0.01 (log -2)) was 27.8%, the “%inh” value ([1]; conc 0.1 (log -1)) was 40.6% and the “%inh” value ([1]; conc 1 (log 0)) was 72.7%. For the same compound, the “%inh” value ([1]; conc 10 (log 1)) was 86.9%, the “%inh” value ([1]; conc 100 (log 2)) was 93.7% and the IC50 ([1]; read-out: EGFR inhibition IC50 ± SEM) was 0.156 ± 0.006 µM. The IC50 [2] was 0.249 ± 0.01 µM, the viability at 24 h, 0.4 µM ([3]; WI38, 0.4uM (log conc. -0.41)) was 80.9% and the viability at 24 h, 1.6 µM ([3]; WI38, 1.6uM (log conc. 0.19)) was 73.3%. The viability at 24 h, 6.3 µM ([3]; WI38, 6.3uM (log conc. 0.8)) was 63.5%, the viability at 24 h, 25 µM ([3]; WI38, 25uM (log conc. 1.4)) was 56.2% and the viability at 24 h, 100 µM ([3]; WI38, 100uM (log conc. 2)) was 46.8%. It also gave a viability at 0.4 µM ([4]; Homo sapiens, T47D, T-47D, MTT, 0.4uM) of 77.2%, a viability at 1.6 µM ([4]; Homo sapiens, T47D, T-47D, MTT, 1.6uM) of 68.1% and a viability at 6.3 µM ([4]; Homo sapiens, T47D, T-47D, MTT, 6.3uM) of 56.8%. The viability at 25 µM ([4]; Homo sapiens, T47D, T-47D, MTT, 25uM) was 45.8%, the viability at 100 µM ([4]; Homo sapiens, T47D, T-47D, MTT, 100uM) was 33.6% and the IC50 ([4]; Homo sapiens, T47D, read-out: Antiproliferative activity IC50 ± SEM, T-47D, MTT) was 13.8 ± 0.48 µM. The “% viability” value ([4]; T-47D, MTT, 1.6uM, listed as Ws4, 1.6 µM) was 68.09%, the “% viability” value ([4]; T-47D, MTT, 6.3uM, listed as Ws4, 6.3 µM) was 56.85% and the “% viability” value ([4]; T-47D, MTT, 25uM, listed as Ws4, 25 µM) was 45.78%. For the same compound, the “% viability” value ([4]; T-47D, MTT, 100uM, listed as Ws4, 100 µM) was 33.56%, the viability at 0.4 µM ([5]; Homo sapiens, MOLT-4, MOLT-4, MTT, 0.4uM) was 69.9% and the viability at 1.6 µM ([5]; Homo sapiens, MOLT-4, MOLT-4, MTT, 1.6uM) was 62.7%. It also gave a viability at 6.3 µM ([5]; Homo sapiens, MOLT-4, MOLT-4, MTT, 6.3uM) of 51.6%, a viability at 25 µM ([5]; Homo sapiens, MOLT-4, MOLT-4, MTT, 25uM) of 40.9% and a viability at 100 µM ([5]; Homo sapiens, MOLT-4, MOLT-4, MTT, 100uM) of 30.2%. For the same compound, the IC50 ([5]; Homo sapiens, MOLT-4, MTT, read-out: Antiproliferative activity IC50 ± SEM, MOLT-4) was 7.24 ± 0.29 µM, the “% viability” value ([5]; MOLT-4, MTT, 0.4uM, listed as Ws4, 0.4 µM) was 69.89% and the “% viability” value ([5]; MOLT-4, MTT, 1.6uM, listed as Ws4, 1.6 µM) was 62.75%. For the same compound, the “% viability” value ([5]; MOLT-4, MTT, 25uM, listed as Ws4, 25 µM) was 40.91%, the “% viability” value ([5]; MOLT-4, MTT, 100uM, listed as Ws4, 100 µM) was 30.23% and the inhibition at 10 µM ([6]; 786-0, Renal cancer 786-0, 10 μM) was 14.4%. For the same compound, the inhibition at 10 µM ([6]; A498, Renal cancer A498, 10 μM) was less than 5%, the inhibition at 10 µM ([6]; A549, Non-small cell lung cancer A549/ATCC, 10 μM) was less than 5% and the inhibition at 10 µM ([6]; ACHN, Renal cancer ACHN, 10 μM) was 14.1%. For the same compound, the inhibition at 10 µM ([6]; BT-549, Breast cancer BT-549, 10 μM) was 56.3%, the inhibition at 10 µM ([6]; CAKI-1, Renal cancer CAKI-1, 10 μM) was 21.5% and the inhibition at 10 µM ([6]; CCRF-CEM, Leukemia CCRF-CEM, 10 μM) was 52.2%. It also gave an inhibition at 10 µM ([6]; COLO 205, Colon cancer COLO 205, 10 μM) of less than 5%, an inhibition at 10 µM ([6]; DU-145, Prostate cancer DU-145, 10 μM) of 10.9% and an inhibition at 10 µM ([6]; EKVX, Non-small cell lung cancer EKVX, 10 μM) of 10.1%. The inhibition at 10 µM ([6]; HCC 2998, Colon cancer HCC-2998, 10 μM) was less than 5%, the inhibition at 10 µM ([6]; HCT-15, Colon cancer HCT-15, 10 μM) was less than 5% and the inhibition at 10 µM ([6]; HCT-116, Colon cancer HCT-116, 10 μM) was 19.1%. The inhibition at 10 µM ([6]; HL-60, Leukemia HL-60(TB), 10 μM) was less than 5%, the inhibition at 10 µM ([6]; HOP-62, Non-small cell lung cancer HOP-62, 10 μM) was 24.6% and the inhibition at 10 µM ([6]; HOP-92, Non-small cell lung cancer HOP-92, 10 μM) was less than 5%. For the same compound, the inhibition at 10 µM ([6]; HT-29, Colon cancer HT29, 10 μM) was less than 5%, the inhibition at 10 µM ([6]; Hs-578T, Breast cancer HS 578T, 10 μM) was 36.3% and the inhibition at 10 µM ([6]; IGROV-1, Ovarian cancer IGROV1, 10 μM) was 14.6%. The inhibition at 10 µM ([6]; K562, Leukemia K-562, 10 μM) was 29.7%, the inhibition at 10 µM ([6]; KM12, Colon cancer KM12, 10 μM) was 16.7% and the inhibition at 10 µM ([6]; LOX IMVI, Melanoma LOX IMVI, 10 μM) was 29%. It also gave an inhibition at 10 µM ([6]; Leukemia SR, 10 μM) of 71.6%, an inhibition at 10 µM ([6]; MCF7, Breast cancer MCF7, 10 μM) of 36.3% and an inhibition at 10 µM ([6]; MDA-MB-231, Breast cancer MDA-MB-231/ATCC, 10 μM) of 51.7%. For the same compound, the inhibition at 10 µM ([6]; MDA-MB-435, Melanoma MDA-MB-435, 10 μM) was 27.3%, the inhibition at 10 µM ([6]; MDA-MB-468, Breast cancer MDA-MB-468, 10 μM) was 47.2% and the inhibition at 10 µM ([6]; MOLT-4, Leukemia MOLT-4, 10 μM) was 34.3%. For the same compound, the inhibition at 10 µM ([6]; Melanoma M14, 10 μM) was 20.7%, the inhibition at 10 µM ([6]; Melanoma MALM-3M, 10 μM) was 44.5% and the inhibition at 10 µM ([6]; NCI-H23, Non-small cell lung cancer NCI-H23, 10 μM) was 16.9%. For the same compound, the inhibition at 10 µM ([6]; NCI-H226, Non-small cell lung cancer NCI-H226, 10 μM) was 17.6%, the inhibition at 10 µM ([6]; NCI-H322M, Non-small cell lung cancer NCI-H322M, 10 μM) was 8.41% and the inhibition at 10 µM ([6]; NCI-H460, Non-small cell lung cancer NCI-H460, 10 μM) was 6.52%. The inhibition at 10 µM ([6]; NCI-H522, Non-small cell lung cancer NCI-H522, 10 μM) was 44.8%, the inhibition at 10 µM ([6]; NCI/ADR-RES, Ovarian cancer NCI/ADR-RES, 10 μM) was 5.85% and the inhibition at 10 µM ([6]; OVCAR-3, Ovarian cancer OVCAR-3, 10 μM) was 23.4%. The inhibition at 10 µM ([6]; OVCAR-4, Ovarian cancer OVCAR-4, 10 μM) was 24.2%, the inhibition at 10 µM ([6]; OVCAR-5, Ovarian cancer OVCAR-5, 10 μM) was 11.5% and the inhibition at 10 µM ([6]; OVCAR-8, Ovarian cancer OVCAR-8, 10 μM) was 6.15%. For the same compound, the inhibition at 10 µM ([6]; Prostate cancer PC-3, 10 μM) was 18.5%, the inhibition at 10 µM ([6]; RPMI-8226, Leukemia RPMI-8226, 10 μM) was 15.7% and the inhibition at 10 µM ([6]; RXF 393, Renal cancer RXF 393, 10 μM) was less than 5%. The inhibition at 10 µM ([6]; SF-268, CNS Cancer SF-268, 10 μM) was 28.7%, the inhibition at 10 µM ([6]; SF-295, CNS Cancer SF-295, 10 μM) was 9.48% and the inhibition at 10 µM ([6]; SF-539, CNS Cancer SF-539, 10 μM) was 33%. It also gave an inhibition at 10 µM ([6]; SK-MEL-2, Melanoma SK-MEL-2, 10 μM) of 27.2%, an inhibition at 10 µM ([6]; SK-MEL-5, Melanoma SK-MEL-5, 10 μM) of 21.8% and an inhibition at 10 µM ([6]; SK-MEL-28, Melanoma SK-MEL-28, 10 μM) of 24.7%. The inhibition at 10 µM ([6]; SK-OV-3, Ovarian cancer SK-OV-3, 10 μM) was 24.1%, the inhibition at 10 µM ([6]; SN12C, Renal cancer SN12C, 10 μM) was 27% and the inhibition at 10 µM ([6]; SNB-19, CNS Cancer SNB-19, 10 μM) was 24.9%. For the same compound, the inhibition at 10 µM ([6]; SNB-75, CNS Cancer SNB-75, 10 μM) was 35.4%, the inhibition at 10 µM ([6]; SW-620, Colon cancer SW-620, 10 μM) was 7.13% and the inhibition at 10 µM ([6]; T47D, Breast cancer T-47D, 10 μM) was 54%. It also gave an inhibition at 10 µM ([6]; TK-10, Renal cancer TK-10, 10 μM) of less than 5%, an inhibition at 10 µM ([6]; U-251, CNS Cancer U251, 10 μM) of 26.3% and an inhibition at 10 µM ([6]; UACC-62, Melanoma UACC-62, 10 μM) of 41.8%. For the same compound, the inhibition at 10 µM ([6]; UACC-257, Melanoma UACC-257, 10 μM) was 4.52%, the inhibition at 10 µM ([6]; UO-31, Renal cancer UO-31, 10 μM) was 37.7% and the “% viability” value ([7]; HOP-92, MTT, 0.4uM, listed as Ws4, 0.4 µM) was 85.21%. For the same compound, the “% viability” value ([7]; HOP-92, MTT, 1.6uM, listed as Ws4, 1.6 µM) was 75.93%, the “% viability” value ([7]; HOP-92, MTT, 6.3uM, listed as Ws4, 6.3 µM) was 64.52% and the “% viability” value ([7]; HOP-92, MTT, 25uM, listed as Ws4, 25 µM) was 52.12%. For the same compound, the “% viability” value ([7]; HOP-92, MTT, 100uM, listed as Ws4, 100 µM) was 42.18%, the viability at 0.4 µM ([7]; Homo sapiens, HOP-92, HOP-92, MTT, 0.4uM, read-out: % viability) was 85.2% and the viability at 1.6 µM ([7]; Homo sapiens, HOP-92, HOP-92, MTT, 1.6uM, read-out: % viability) was 75.9%. For the same compound, the viability at 6.3 µM ([7]; Homo sapiens, HOP-92, HOP-92, MTT, 6.3uM, read-out: % viability) was 64.5%, the viability at 25 µM ([7]; Homo sapiens, HOP-92, HOP-92, MTT, 25uM, read-out: % viability) was 52.1% and the viability at 100 µM ([7]; Homo sapiens, HOP-92, HOP-92, MTT, 100uM, read-out: % viability) was 42.2%. The IC50 ([7]; Homo sapiens, HOP-92, MTT, read-out: Antiproliferative activity IC50 ± SEM, HOP-92) was 36.5 ± 1.46 µM.
